In paper PMC12404492, “The crystal structure of Thermus thermophilus UMP kinase complexed with a phosphoryl group acceptor and donor” (PLOS One, 2025):

Molecular target: T1, ttUMPK (UMP kinase of Thermus thermophilus HB8) (Thermus thermophilus, UniProt P43891)
T1 construct: gene pyrH; full-length gene in pET-11a (NdeI/BamHI), no tag mentioned; expressed in E. coli BL21(DE3), heat-treated; homohexamer by size exclusion
Assay: X-ray crystal structure, […] Å (second data set, PDB code not given)
Assay type: binding
Details: active site, most chains

T1 sequence (P43891 whole entry): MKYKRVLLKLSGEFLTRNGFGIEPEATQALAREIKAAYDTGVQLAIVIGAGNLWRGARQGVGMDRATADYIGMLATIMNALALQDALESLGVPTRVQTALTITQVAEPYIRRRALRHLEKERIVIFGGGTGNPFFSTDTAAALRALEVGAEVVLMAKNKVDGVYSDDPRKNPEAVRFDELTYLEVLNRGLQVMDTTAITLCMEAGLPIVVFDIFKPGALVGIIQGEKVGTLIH

In the case of O=c1ccn([C@@H]2O[C@H](COP(=O)(O)O)[C@@H](O)[C@H]2O)c(=O)[nH]1 [UMP], the “X-ray crystal structure, 2.5 Å (second data set, PDB code not given)” value is reported as “most of the bound uridine nucleotides in the active site are UMP, not UDP”.
